Patent publication US20230381273A1, “NANOPARTICLE IN WHICH ANTIBACTERIAL PEPTIDE IS ENCAPSULATED WITH CHITOSAN AND USE THEREOF” (NATIONAL MARINE BIODIVERSITY INSTITUTE OF KOREA, priority 2022, published 2023)
In brackets after ≈: the same amount, converted by molar mass. Peptide text beside a SMILES is read from it.

Legend:
Type in all cases: cell-based
Candida albicans = tested on: Candida albicans
Method: (§1) Prior to confirming the antibacterial and antifungal activity of octominin-CNP or free octominin, for the antibacterial activity of octominin against Acinetobacter baumannii (A. baumannii) through preliminary analysis, it was confirmed that minimum inhibitory concentration (MIC) was 5 μg/mL, and the minimum bactericidal concentration (MBC) was 10 μg/mL. In addition, for the antifungal activity against Candida albicans (C. albicans), it was confirmed that the MIC was 50 μg/mL and the minimum fungicidal concentration (MFC) was 200 μg/mL. Accordingly, the antibacterial and antifungal activities of octominin-CNP and free octominin against A. baumannii and C. albicans were confirmed at the MIC and MBC/MFC peptide concentrations.

Acinetobacter baumannii = tested on: Acinetobacter baumannii
Method: as §1

[1] = MTT cell viability assay (cytotoxicity); details: human, HEK293 cells
Method: After treating HEK293 cells with octominin-CNP and octominin, MTT (3-(4,5-dimethylthiazol-2-yl)-2,5-diphenyltetrazolium bromide) assay was performed to confirm cell viability.
First, HEK293 cells were cultured using DMEM (Dulbecco's modified Eagle's medium (Sigma-Aldrich, Munich, Germany)) containing 10% (v/v) fetal bovine serum (FBS, (Sigma-Aldrich, Munich, Germany)) and antibiotic-antimycotic (Thermo Fisher Scientific, Waltham, MA, USA). In addition, it was cultured for 24 hours under humidified conditions of 5% CO2 and 37° C. The cells were collected and seeded in a 96-well microplate at a cell density of 2.0×10^5 cells/mL (100 μL/well) and allowed to adhere to the well for 12 hours. The culture medium was then replaced, and they were treated with octominin-CNP (0 to 400 μg/mL) or octominin (0 to 400 μg/mL). After 24 hours of culture, the culture medium was replaced with fresh medium (90 μL), and 10 μL of MTT ([…]) was added to each well, followed by incubation at 37° C. for 4 hours. Then, 50 μL of DMSO was added to the wells in which the culture medium was eradicated to solubilize the resulting formazan dye. Their absorbances were measured at 595 nm using a microplate spectrophotometer (Bio-Rad, Saint Louis, (MO, USA)).

MIC (Candida albicans): 50 µg/mL (≈ 19 µM)
minimum inhibitory concentration (MIC) (Acinetobacter baumannii): 5 µg/mL (≈ 1.9 µM)
Structure (SMILES): CC[C@H](C)[C@H](NC(=O)[C@H](C)NC(=O)[C@H](CCCCN)NC(=O)CNC(=O)[C@H](C)NC(=O)[C@H](Cc1c[nH]cn1)NC(=O)[C@@H](NC(=O)[C@H](C)NC(=O)CNC(=O)[C@H](CCCNC(=N)N)NC(=O)[C@@H](NC(=O)[C@H](CC(C)C)NC(=O)[C@H](Cc1c[nH]c2ccccc12)NC(=O)CN)[C@@H](C)CC)[C@@H](C)CC)C(=O)N[C@@H](Cc1c[nH]cn1)C(=O)NCC(=O)N[C@@H](CC(C)C)C(=O)N[C@H](C(=O)N[C@@H](Cc1c[nH]cn1)C(=O)N[C@@H](CCCNC(=N)N)C(=O)N[C@@H](CCCNC(=N)N)C(=O)N[C@@H](CCCNC(=N)N)C(=O)N[C@@H](Cc1c[nH]cn1)C(=O)O)[C@@H](C)CC [octominin] (H-GWLIRGAIHAGKAIHGLIHRRRH-OH)
minimum fungicidal concentration (MFC) (Candida albicans): 200 µg/mL (≈ 76.2 µM)
minimum bactericidal concentration (MBC) (Acinetobacter baumannii): 10 µg/mL (≈ 3.81 µM)
viability at 24 h, 400 µg/mL [1]: 85.2%
